The record followed here is US9115133B2, “Substituted fused tricyclic compounds, compositions and medicinal applications thereof” (Advinus Therapeutics Limited, priority 2011, dated 2015).

Experiment [1] addresses T1, Recombinant JAK3 (Amino acids 781-1124) (Homo sapiens, UniProt P52333).
T1 construct: JAK3 (Amino acids 781-1124; NM_000215.3); made in house; host or cells: baculovirus expression system (Bac-to-Bac)
The experiment can be described thus: Kinase-Glo Luminescent Kinase Assay, recombinant JAK3. In kind it is biochemical. The conditions noted are these: 200 μg/ml Poly Glu-Tyr (4:1), ATP 1 uM, 90 min room temperature, luminescence. The text has this: (§1) Recombinant JAK1 (Amino acids 850-1154; NM_002227.2), JAK2 (Amino acids 808-1132; NM_004972.3) and JAK3 (Amino acids 781-1124; NM_000215.3) used in the studies were expressed using Invitrogen's Bac-to-Bac baculovirus expression system according to manufacturer's instructions. Adenosine 5′-triphosphate was obtained from Sigma Aldrich chemicals (Cat # A7699). Poly Glu-Tyr (4:1) sodium salt was obtained from Sigma Aldrich (Cat # P0275), Kinase Glo® Luminescent Kinase assay kit was obtained from Promega (Cat # V6713) Kinase activity was assessed by Promega Kinase-Glo® Luminescent Kinase Assay kit using 200 μg/ml Poly Glu-Tyr (4:1) as substrate and ATP at 1 uM concentration. The reactions were carried out in 384 well plates in total reaction volume of 20 uL. Reaction mixtures contained 50 mM HEPES pH 7.4, 5 mM MgCl2, 1 mM DTT, 0.01% BSA, 0.01% Tween 20. Kinase was pre-incubated with compounds or 1% DMSO for 5 min before addition of substrate and ATP to check for inhibition. Kinase reactions were carried out at room temperature for 90 min. The reactions were stopped by adding 5 μl of Kinase Glo® reagent & 10 μl of reaction mixture followed by measuring luminescence. The luminescent signal is correlated with the amount of ATP present at the end of kinase reaction and is inversely correlated with the amount of kinase activity. For each data point, % inhibition is calculated based on uninhibited reaction (without compound) which is considered as 100% activity over no enzyme or substrate controls. Dose response data is then fit using a four parameter logistic equation using Graph-pad Prism 5 software to determine inhibition constant 50 (IC50).
(In Kinase-Glo more light means more ATP remaining.)

Experiment [2] addresses T2, Recombinant JAK1 (Amino acids 850-1154) (Homo sapiens, UniProt P23458).
T2 construct: Recombinant JAK1 (Amino acids 850-1154; NM_002227.2); made in house; host or cells: baculovirus expression system (Bac-to-Bac)
Put plainly: Kinase-Glo Luminescent Kinase Assay, recombinant JAK1. In kind it is biochemical. The conditions noted are these: 200 μg/ml Poly Glu-Tyr (4:1), ATP 1 uM, 90 min room temperature, luminescence.
Source text: as §1

Each structure is given as a SMILES string. pIC50: −log10 of the molar value.

T2 sequence (P23458 850-1154): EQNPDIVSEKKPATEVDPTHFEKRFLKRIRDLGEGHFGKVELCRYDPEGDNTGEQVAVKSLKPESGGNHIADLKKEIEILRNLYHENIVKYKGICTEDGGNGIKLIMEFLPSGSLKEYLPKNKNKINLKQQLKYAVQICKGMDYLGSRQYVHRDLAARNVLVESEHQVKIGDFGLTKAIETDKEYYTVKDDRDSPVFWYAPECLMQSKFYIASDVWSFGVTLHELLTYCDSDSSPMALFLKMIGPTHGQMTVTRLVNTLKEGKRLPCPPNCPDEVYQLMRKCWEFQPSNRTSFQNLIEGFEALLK
T1 sequence (P52333 781-1124): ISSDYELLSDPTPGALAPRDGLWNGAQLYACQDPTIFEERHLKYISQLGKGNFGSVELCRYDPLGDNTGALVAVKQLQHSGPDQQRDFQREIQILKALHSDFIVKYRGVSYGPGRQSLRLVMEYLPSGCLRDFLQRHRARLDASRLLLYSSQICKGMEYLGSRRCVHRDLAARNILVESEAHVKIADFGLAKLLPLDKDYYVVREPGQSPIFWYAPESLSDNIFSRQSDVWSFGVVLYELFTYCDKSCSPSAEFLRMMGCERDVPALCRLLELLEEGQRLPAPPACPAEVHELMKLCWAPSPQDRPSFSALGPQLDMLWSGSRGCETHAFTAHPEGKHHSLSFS

Broadly, the pIC50 is the negative decadic logarithm of the IC50, by convention in mol/L. On to `CC(C)CS(=O)(=O)N1CCC(c2ncnc3cnc4[nH]ccc4c23)C1` (stereo not shown) [Ex. 40, 9-[1-(2-Methyl-propane-1-sulfonyl)-pyrrolidin-3-yl]-3H-3,4,6,8-tetraaza-cyclopenta[a]naphthalene], for which the pIC50 in experiment [1] is below 7.70.
With `CCOC(=O)c1cnc2cnc3c(ccn3S(=O)(=O)c3ccc(C)cc3)c2c1O` [Comp. 8, Ethyl 9-hydroxy-3-(p-tolylsulfonyl)pyrrolo[3,2-f][1,7]naphthyridine-8-carboxylate], the negative-log IC50 (pIC50) in experiment [1] is below 7.70.
On to `CC(C)C(=O)N1CCC(c2ncnc3cnc4[nH]ccc4c23)C1` (stereo not shown) [Ex. 36, 2-Methyl-1-[3-(3H-3,4,6,8-tetraaza-cyclopenta[a]naphthalen-9-yl)-pyrrolidin-1-yl]-propan-1-one], for which the negative logarithm of the IC50 (pIC50) in experiment [1] is below 7.70.
Regarding `CN(CC(F)(F)F)C(=O)C1CCN(c2ccnc3cnc4[nH]ccc4c23)CC1` [Ex. 82, N-methyl-1-(3H-yrrolo[3,2-f][1,7]naphthyridin-9-yl)-N-(2,2,2-trifluoroethyl) piperidine-4-carboxamide], the pIC50 in experiment [2] is below 7.70; in experiment [1] it was 7.70 to 9.00.
On the same counts, the results for `O=C(NCC(F)(F)F)C1CCN(c2ccnc3cnc4[nH]ccc4c23)CC1` [Ex. 78, 1-(3H-pyrrolo[3,2-f][1,7]naphthyridin-9-yl)-N-(2,2,2-trifluoroethyl)piperidine-4-carboxamide] are below 7.70 and below 7.70.
Take `N#CCC(=O)N1CC=C(c2ccnc3cnc4[nH]ccc4c23)C1` [Ex. 41, 3-oxo-3-[3-(3H-pyrrolo[3,2-f][1,7]naphthyridin-9-yl)-2,5-dihydropyrrolo-1-yl]propanenitrile]: the pIC50 in experiment [1] was below 7.70.
`CC(C)(C)C(=O)N1CCC(c2ncnc3cnc4[nH]ccc4c23)C1` (stereo not shown) [Ex. 38, 2,2-Dimethyl-1-[3-(3H-3,4,6,8-tetraaza-cyclopenta[a]naphthalen-9-yl)-pyrrolidin-1-yl]-propan-1-one]: in experiment [1], the pIC50 is below 7.70.
For the compound `c1cc(N2CCCC(N3CCOCC3)C2)c2c(cnc3[nH]ccc32)n1` (stereo not shown) [Ex. 70, 4-[1-(3H-pyrrolo[3,2-f][1,7]naphthyridin-9-yl)-3-piperidiyl] morpholine], the pIC50 in experiment [1] is below 7.70.
Turning to `O=C(CC(F)(F)F)N1CCCC(c2ccnc3cnc4[nH]ccc4c23)C1` (stereo not shown) [Ex. 4, 3,3,3-trifluoro-1-[3-(3H-pyrrolo[3,2-f][1,7]naphthyridin-9-yl)-1-piperidyl]propan-1-one], the negative-log IC50 (pIC50) in experiment [2] and in experiment [1] was 7.70 to 9.00 throughout.
With `CN(C(=O)C1CCCC1)C1CCCN(c2ccnc3cnc4[nH]ccc4c23)C1` (stereo not shown) [Ex. 66, N-methyl-N-[1-(3H-pyrrolo[3,2-f][1,7]naphthyridin-9-yl)-3-piperidyl]cyclopentane-carboxamide], the pIC50 in experiment [1] is below 7.70.
Consider `N#CCC(=O)N1CCC(c2ncnc3cnc4[nH]ccc4c23)C1` (stereo not shown) [Ex. 34, 3-Oxo-3-[3-(3H-3,4,6,8-tetraaza-cyclopenta[a]naphthalen-9-yl)-pyrrolidin-1-yl]-propionitrile], for which the pIC50 in experiment [1] was below 7.70.
`CC(C)C(=O)NC1CCN(c2ccnc3cnc4[nH]ccc4c23)C1` (stereo not shown) [Ex. 97, 2-methyl-N-[1-(3H-pyrrolo[3,2-f][1,7]naphthyridin-9-yl)pyrrolidin-3-yl]propanamide]: the pIC50 in experiment [1] was below 7.70.
The same measure, in the same setting: the figure for `CS(=O)(=O)NC1CCN(c2ccnc3cnc4[nH]ccc4c23)C1` (stereo not shown) [Ex. 101, N-[1-(3H-pyrrolo[3,2-f][1,7]naphthyridin-9-yl)pyrrolidin-3-yl]methanesulfonamide] is 7.70 to 9.00; for `O=C(CC(F)(F)F)NC1CCN(c2ccnc3cnc4[nH]ccc4c23)C1` (stereo not shown) [Ex. 100, 3,3,3-trifluoro-N-[1-(3H-pyrrolo[3,2-f][1,7]naphthyridin-9-yl)pyrrolidin-3-yl]propanamide] it is 7.70 to 9.00; for `NC1CCN(c2ccnc3cnc4[nH]ccc4c23)C1` (stereo not shown) [Comp. 125, 1-(3H-pyrrolo[3,2-f][1,7]naphthyridin-9-yl)pyrrolidin-3-amine] it is below 7.70.
For `O=C(CC1CC1)NC1CCN(c2ccnc3cnc4[nH]ccc4c23)C1` (stereo not shown) [Ex. 98, 2-cyclopropyl-N-[1-(3H-pyrrolo[3,2-f][1,7]naphthyridin-9-yl)pyrrolidin-3-yl]acetamide], in experiment [1], the pIC50 is below 7.70.
Take `O=C(CCC(F)(F)F)N1CCC(c2ncnc3cnc4[nH]ccc4c23)C1` (stereo not shown) [Ex. 37, 4,4,4-Trifluoro-1-[3-(3H-3,4,6,8-tetraaza-cyclopenta[a]naphthalen-9-yl)-pyrrolidin-1-yl]-butan-1-one]: the pIC50 in experiment [1] is below 7.70.
Still for that read-out and setting: the figure for `CC(C)CS(=O)(=O)NC1CCN(c2ccnc3cnc4[nH]ccc4c23)C1` (stereo not shown) [Ex. 93, 2-methyl-N-[1-(3H-pyrrolo[3,2-f][1,7]naphthyridin-9-yl)pyrrolidin-3-yl]propane-1-sulfonamide] is below 7.70.
Same read-out and setting: the same measure for `CC(C)NC(=O)NC1CCN(c2ccnc3cnc4[nH]ccc4c23)C1` (stereo not shown) [Ex. 95, 1-isopropyl-3-[1-(3H-pyrrolo[3,2-f][1,7]naphthyridin-9-yl)pyrrolidin-3-yl]urea]: below 7.70; for `O=C(C1CC1)N1CCC(c2ncnc3cnc4[nH]ccc4c23)C1` (stereo not shown) [Ex. 35, Cyclopropyl-[3-(3H-3,4,6,8-tetraaza-cyclopenta[a]naphthalen-9-yl)-pyrrolidin-1-yl]-methanone]: below 7.70; for `O=C(NC1CCN(c2ccnc3cnc4[nH]ccc4c23)C1)C1CC1` (stereo not shown) [Ex. 96, N-[1-(3H-pyrrolo[3,2-f][1,7]naphthyridin-9-yl)pyrrolidin-3-yl]cyclopropanecarbox-amide]: below 7.70.
On to `O=C(CC(F)(F)F)N1CCC(c2ncnc3cnc4[nH]ccc4c23)C1` (stereo not shown) [Ex. 33, 3,3,3-Trifluoro-1-[3-(3H-3,4,6,8-tetraaza-cyclopenta[a]naphthalen-9-yl)-pyrrolidin-1-yl]-propan-1-one], for which the pIC50 in experiment [1] is below 7.70.
Take `COCCNC(=O)C1CCCN(c2ccnc3cnc4[nH]ccc4c23)C1` (stereo not shown) [Ex. 69, N-(2-methoxyethyl)-1-(3H-pyrrolo[3,2-f][1,7]naphthyridin-9-yl)piperidine-3-carboxamide]: the pIC50 in experiment [1] is below 7.70.
Same read-out and setting: the figure for `c1cc(N2CCOCC2)c2c(cnc3[nH]ccc32)n1` [Ex. 64, 4-(3H-pyrrolo[3,2-f][1,7]naphthyridin-9-yl)morpholine] is below 7.70; for `N#CCS(=O)(=O)NC1CCN(c2ccnc3cnc4[nH]ccc4c23)C1` (stereo not shown) [Ex. 94, 1-cyano-N-[1-(3H-pyrrolo[3,2-f][1,7]naphthyridin-9-yl)pyrrolidin-3-yl]methanesulfonamide] it is 7.70 to 9.00; for `O=C(CC(F)(F)F)N1CCC[C@@H](c2ccnc3cnc4[nH]ccc4c23)C1` [Ex. 4B, (S)3,3,3-trifluoro-1-[3-(3H-pyrrolo[3,2-f][1,7]naphthyridin-9-yl)-1-piperidyl]propan-1-one] it is below 7.70.
Regarding `O=C(CC(F)(F)F)N1CC=C(c2ccnc3cnc4[nH]ccc4c23)C1` [Ex. 42, 3,3,3-trifluoro-1-[3-(3H-pyrrolo[3,2-f][1,7]naphthyridin-9-yl)-2,5-dihyropyrrol-1-yl]propan-1-one], the pIC50 in experiment [1] was below 7.70.
The same measure, in the same setting: the figure for `N#CCC(=O)NC1CCN(c2ccnc3cnc4[nH]ccc4c23)C1` (stereo not shown) [Ex. 99, 2-cyano-N-[1-(3H-pyrrolo[3,2-f][1,7]naphthyridin-9-yl)pyrrolidin-3-yl]acetamide] is below 7.70.
